From patent US11571413B2, “Nicotinamide riboside treatments of domesticated meat animals” (Kansas State University Research Foundation, priority 2017, dated 2023)
Marks after values point to notes of the source that are not given here.

Test system: Fertilized Cobb 500 broiler eggs
Experiment: In ovo NR dose, time course of body and pectoralis major morphometrics at E15, E19, hatch (second Example VI)
Type: in vivo, chicken
Procedure: Fertilized Cobb 500 broiler eggs (N=247; Cobb Vantress, Siloam Springs, Ark.) were transported to Kansas State University Muscle Biology Laboratory (Manhattan, Kans.), egg weights were recorded, and within each 4 egg strata eggs were randomly assigned to an NR treatment (0 mM, 250 mM, 500 mM, or 1 M NR). After treatment allocation, eggs were put onto trays and placed in a Sportsman 1502 incubator (GQF Manufacturing Company Inc., Savannah, Ga.) set to operate at 37° C. and 40±4% relative humidity. Trays were rotated hourly to reposition eggs and egg weights were recorded daily to determine percentage weight loss with a standard daily weight loss ranging from 0.65% to 0.75%.
At d 10 of incubation, the methods of Gonzalez and Jackson (2020) were followed for treatment administration. Eggs were briefly removed from the incubator and prior to injection, the injection site was cleaned with 70% ethanol. […] of 0.9% sterile saline was injected into yolk sac of each egg with a 2.54-cm, 20-guage injection needle inserted approximately 1-cm into injection site. The injection site was covered with a 1-cm^2 portion of medical tape (Nexcare; 3M, Maplewood, Minn.) and placed back into the incubator under the conditions described above. At d 18 of incubation, egg were removed from their trays, placed in hatching boxes, and the humidity of the incubator was increased to 60±2%.
At three time points, E (i.e., embryonic day 15, day 15 after the beginning of incubation), E19, and 24 hours post-hatching, embryos and chicks were euthanized by exposure to CO2 and decapitation. Crown to rump length (CR), head width and head length were measured by calipers (Traceable Digital Calipers; Fisher Scientific, Pittsburg, Pa.). Head and chest circumference were collected by curling a string around the target area and measuring the length of the curled string by a ruler. Chicks chest were sprayed with 70% ethanol, were skinned to expose the PMM, and chest width and length were measured by calipers. Both sides of the PMM were removed and the left side was weighed, followed by length, width, and thickness measurement collection. Following measurement collection, the left PMM was submerged in optimal cutting temperature tissue freezing medium compound, slowly frozen at −20° C. for 1 h, and stored at −80° C. until cryosectioning. The right side of PMM was stored in a 1.5 ml microcentrifuge tube and stored at −80° C. until NAD+ analysis. At last, the heart and liver of each chick were removed, weighed, and discarded.

[1] = 250 mM NR into yolk sac d 10, E15 embryos
[2] = 250 mM NR into yolk sac d 10, E19 embryos
[3] = 250 mM NR into yolk sac d 10, hatched chicks
[4] = 500 mM NR into yolk sac d 10, E15 embryos
[5] = 500 mM NR into yolk sac d 10, E19 embryos
[6] = 500 mM NR into yolk sac d 10, hatched chicks
[7] = 1,000 mM NR into yolk sac d 10, E15 embryos
[8] = 1,000 mM NR into yolk sac d 10, E19 embryos
[9] = 1,000 mM NR into yolk sac d 10, hatched chicks
[10] = E19 embryos, 250 to 1,000 mM NR

SMILES: NC(=O)c1ccc[n+]([C@@H]2O[C@H](CO)[C@@H](O)[C@H]2O)c1 [Nicotinamide riboside, nicotinamide riboside]
- Body weight [1]: 14.5 g
- Crown-rump length [1]: 61.4 mm
- Head length [1]: 17.6 mm
- Head width [1]: 13.7 mm
- Heart weight [1]: 0.14 g
- Liver weight [1]: 0.27 g
- Pectoralis major depth [1]: 7.2 mm
- Pectoralis major length [1]: 18.3 mm
- Pectoralis major weight [1]: 0.81 g
- Pectoralis major width [1]: 14.7 mm
- Body weight [2]: 37.7 g
- Chest circumference [2]: 59.5 mm
- Chest length [2]: 18.6 mm
- Chest width [2]: 15.5 mm
- Crown-rump length [2]: 84.3 mm
- Head circumference [2]: 53.2^a,c mm
- Head length [2]: 17.7 mm
- Head width [2]: 15.4 mm
- Heart weight [2]: 0.22 g
- Liver weight [2]: 0.64 g
- Pectoralis major depth [2]: 2.9 mm
- Pectoralis major length [2]: 17.2^b mm
- Pectoralis major weight [2]: 0.17^b g
- Pectoralis major width [2]: 5.5 mm
- Body weight [3]: 46.9 g
- Chest circumference [3]: 61.2 mm
- Chest length [3]: 21.9 mm
- Chest width [3]: 17.1^b mm
- Crown-rump length [3]: 95.4 mm
- Head circumference [3]: 55.7 mm
- Head length [3]: 18.7^b mm
- Head width [3]: 15.5 mm
- Heart weight [3]: 0.31 g
- Liver weight [3]: 0.84 g
- Pectoralis major depth [3]: 3.1^a,b mm
- Pectoralis major length [3]: 19.9^b mm
- Pectoralis major weight [3]: 0.23^b g
- Pectoralis major width [3]: 5.5^b mm
- Body weight [4]: 14.2 g
- Crown-rump length [4]: 61.1 mm
- Head length [4]: 17.8 mm
- Head width [4]: 13.7 mm
- Heart weight [4]: 0.13 g
- Liver weight [4]: 0.25 g
- Pectoralis major depth [4]: 7.1 mm
- Pectoralis major length [4]: 17.8 mm
- Pectoralis major weight [4]: 0.82 g
- Pectoralis major width [4]: 15.2 mm
- Body weight [5]: 37.9 g
- Chest circumference [5]: 60.1 mm
- Chest length [5]: 18.5 mm
- Chest width [5]: 16.3 mm
- Crown-rump length [5]: 85.9 mm
- Head circumference [5]: 54.8^b,c mm
- Head length [5]: 17.4 mm
- Head width [5]: 15.3 mm
- Heart weight [5]: 0.22 g
- Liver weight [5]: 0.64 g
- Pectoralis major depth [5]: 2.7 mm
- Pectoralis major length [5]: 17.7^b mm
- Pectoralis major weight [5]: 0.18^b g
- Pectoralis major width [5]: 5.7 mm
- Body weight [6]: 46.1 g
- Chest circumference [6]: 62.5 mm
- Chest length [6]: 21.2 mm
- Chest width [6]: 16.6^a,b mm
- Crown-rump length [6]: 95.0 mm
- Head circumference [6]: 55.6 mm
- Head length [6]: 18.2^a,b mm
- Head width [6]: 15.7 mm
- Heart weight [6]: 0.31 g
- Liver weight [6]: 0.90 g
- Pectoralis major depth [6]: 3.3^b mm
- Pectoralis major length [6]: 20.3^b mm
- Pectoralis major weight [6]: 0.23^b g
- Pectoralis major width [6]: 5.6^b mm
- Body weight [7]: 13.9 g
- Crown-rump length [7]: 61.0 mm
- Head length [7]: 17.4 mm
- Head width [7]: 14.0 mm
- Heart weight [7]: 0.14 g
- Liver weight [7]: 0.28 g
- Pectoralis major depth [7]: 6.6 mm
- Pectoralis major length [7]: 18.5 mm
- Pectoralis major weight [7]: 0.84 g
- Pectoralis major width [7]: 14.9 mm
- Body weight [8]: 38.1 g
- Chest circumference [8]: 61.5 mm
- Chest length [8]: 18.3 mm
- Chest width [8]: 15.4 mm
- Crown-rump length [8]: 86.3 mm
- Head circumference [8]: 55.0^b mm
- Head length [8]: 17.6 mm
- Head width [8]: 15.4 mm
- Heart weight [8]: 0.23 g
- Liver weight [8]: 0.63 g
- Pectoralis major depth [8]: 2.9 mm
- Pectoralis major length [8]: 17.6^b mm
- Pectoralis major weight [8]: 0.17^b g
- Pectoralis major width [8]: 5.6 mm
- Body weight [9]: 46.6 g
- Chest circumference [9]: 61.4 mm
- Chest length [9]: 21.1 mm
- Chest width [9]: 16.1^a mm
- Crown-rump length [9]: 93.0 mm
- Head circumference [9]: 53.9 mm
- Head length [9]: 17.8^a mm
- Head width [9]: 15.5 mm
- Heart weight [9]: 0.32 g
- Liver weight [9]: 0.96 g
- Pectoralis major depth [9]: 3.0^a mm
- Pectoralis major length [9]: 19.1^a,b mm
- Pectoralis major weight [9]: 0.22^b g
- Pectoralis major width [9]: 5.4^b mm
- Increase of PMM length (minimum over NR doses) [10]: ≥ 13%
- Increase of PMM weight (minimum over NR doses) [10]: ≥ 21%
- Increase in PMM depth (at hatch): 18%
- Increase in PMM length (at hatch): 13%
- Increase in PMM width (at hatch): 17%
- PMM weight advantage (at hatch): 35%
